In patent US12629374B2, “Antimalarial agents” (Merck Sharp & Dohme LLC, priority 2020, dated 2026):

System: ring stage parasites
Experiment: Parasite growth potency assay, 72 hours, LDH readout
Assay type: cell-based
Conditions: 72 h, parasite growth measured by LDH assay after 72 hours at 37° C.; 0.7% rings, 2% haematocrit; read-out: EC50
How it was run: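 Parasite growth was quantified by LDH assay after a −80 °C freeze-thaw. Before that, compound was incubated for 72 h at 37 °C under humidified gas with ring-stage cultures adjusted to 0.7% parasitemia and 2% haematocrit in serum- and albumax-supplemented RPMI-Hepes.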

CC1(C)CC(=O)N(C(CC(F)(F)F)c2cccc(C(=O)N[C@@H]3c4ccccc4OC(C)(C)[C@H]3O)c2)C(=N)N1 (stereo partly drawn) [Example 233, N-[(3S,4R)-3-hydroxy-2,2-dimethyl-chroman-4-yl]-3-[3,3,3-trifluoro-1-(2-imino-4,4-dimethyl-6-oxo-hexahydropyrimidin-1-yl)propyl]benzamide] was tested. Which EC50 did it give?
The EC50 was 1.4 nM.

How did the EC50 turn out when COCC[C@H](c1cccc(C(=O)NC2c3cc(F)ccc3OC(C)(C)C2(C)O)c1)N1C(=N)NC(C)(C)CC1=O (stereo partly drawn) [Example 235, N-(6-fluoro-3-hydroxy-2,2,3-trimethyl-chroman-4-yl)-3-[(1R)-1-(2-imino-4,4-dimethyl-6-oxo-hexahydropyrimidin-1-yl)-3-methoxy-propyl]benzamide] was run?
The EC50 was 0.32 nM.

With CCC1(CC)CC(=O)N(C(CCOC)c2ccc(C(F)(F)F)c(C(=O)N[C@@H]3c4ccccc4C[C@H]3O)c2)C(=N)N1 (stereo partly drawn) [Example 239, 5-[1-(4,4-diethyl-2-imino-6-oxo-hexahydropyrimidin-1-yl)-3-methoxy-propyl]-N-[(1R,2R)-2-hydroxyindan-1-yl]-2-(trifluoromethyl)benzamide] as the compound, how does the EC50 read?
Its EC50 is 3.6 nM.

CCC1(CC)CC(=O)N(C(CCOC)c2ccc(C(F)(F)F)c(C(=O)N[C@@H]3c4ccccc4C[C@@]3(C)O)c2)C(=N)N1 (stereo partly drawn) [Example 241, 5-[1-(4,4-diethyl-2-imino-6-oxo-hexahydropyrimidin-1-yl)-3-methoxy-propyl]-N-[(1R,2R)-2-hydroxy-2-methyl-indan-1-yl]-2-(trifluoromethyl)benzamide] was tested. Which EC50 did it give?
The EC50 was 9.84 nM.

CCC1(CC)CC(=O)N(C(CCOC)c2ccc(C(F)(F)F)c(C(=O)N[C@@H]3c4ccccc4C[C@]3(C)O)c2)C(=N)N1 (stereo partly drawn) [Example 242, 5-[1-(4,4-diethyl-2-imino-6-oxo-hexahydropyrimidin-1-yl)-3-methoxy-propyl]-N-[(1R,2S)-2-hydroxy-2-methyl-indan-1-yl]-2-(trifluoromethyl)benzamide] was tested. Which EC50 did it give?
The EC50 was 2.28 nM.

For CCC1(CC)CC(=O)N(C(CCOC)c2ccc(C(F)(F)F)c(C(=O)N[C@@H]3c4ccccc4OC[C@H]3O)c2)C(=N)N1 (stereo partly drawn) [Example 243, 5-[1-(4,4-diethyl-2-imino-6-oxo-hexahydropyrimidin-1-yl)-3-methoxy-propyl]-N-[(3S,4R)-3-hydroxychroman-4-yl]-2-(trifluoromethyl)benzamide], which EC50 is on record?
The EC50 was 6.4 nM.

For CCC1(CC)CC(=O)N(C(CCOC)c2ccc(C(F)(F)F)c(C(=O)N[C@@H]3c4ccccc4OC[C@@]3(C)O)c2)C(=N)N1 (stereo partly drawn) [Example 244, 5-[1-(4,4-diethyl-2-imino-6-oxo-hexahydropyrimidin-1-yl)-3-methoxy-propyl]-N-[(3S,4R)-3-hydroxy-3-methyl-chroman-4-yl]-2-(trifluoromethyl)benzamide], which EC50 is on record?
The EC50 was 6.13 nM.

With CCC1(CC)CC(=O)N(C(CCOC)c2ccc(C(F)(F)F)c(C(=O)N[C@@H]3c4ccccc4OC[C@]3(C)O)c2)C(=N)N1 (stereo partly drawn) [Example 245, 5-[1-(4,4-diethyl-2-imino-6-oxo-hexahydropyrimidin-1-yl)-3-methoxy-propyl]-N-[(3R,4R)-3-hydroxy-3-methyl-chroman-4-yl]-2-(trifluoromethyl)benzamide] as the compound, how does the EC50 read?
The EC50 was 1.6 nM.

Which EC50 does the source give for CCC1(CC)CC(=O)N(C(CCOC)c2ccc(C(F)(F)F)c(C(=O)N[C@@H]3c4ccccc4OC(C)(C)[C@H]3O)c2)C(=N)N1 (stereo partly drawn) [Example 246, 5-[1-(4,4-diethyl-2-imino-6-oxo-hexahydropyrimidin-1-yl)-3-methoxy-propyl]-N-[(3S,4R)-3-hydroxy-2,2-dimethyl-chroman-4-yl]-2-(trifluoromethyl)benzamide] here?
The EC50 was 1.74 nM.
